Earlier results, collected in US11304923B2, “Use of a benzoate containing composition to treat glycine encephalopathy” (Rush University Medical Center, priority 2017, dated 2022).

Legend:
[1] = system: disease process of multiple sclerosis (MS); conditions: mice
[2] = system: brain-derived neurotrophic factor (BDNF); conditions: brain cells
neurotrophin-3 (NT-3) = conditions: brain cells
DJ-1 = conditions: astrocytes and neurons

## O=C([O-])c1ccccc1.[Na+] [sodium benzoate]
[1]
  disease process of multiple sclerosis (MS): suppresses
[2]
  production of BDNF: increases
neurotrophin-3 (NT-3)
  production of NT-3: increases
DJ-1
  DJ-1 protein level: up-regulates
